The Deep4Chem optical property database

Assay: solvent given as SMILES

CC1(C)c2ccccc2N(c2ccccc2)c2ccc(-c3nc(-c4ccccc4)nc(-c4ccccc4)n3)cc21
fluorescence lifetime (in O=P(c1ccccc1)(c1ccccc1)c1ccccc1Oc1ccccc1P(=O)(c1ccccc1)c1ccccc1): 4.37 ns

COC(=O)[C@@]12N=N[C@@H](C3C[C@H]31)[C@@H]1C[C@@H]12 (some centres not stated)
fluorescence lifetime (in CC#N): 9.2 ns

COc1ccc(C#Cc2ccc(C#Cc3ccc(C#Cc4ccccc4C#N)cc3C#N)cc2C#N)cc1
fluorescence lifetime (in C1CCOC1): 1.29 ns
fluorescence lifetime (in CC#N): 1.29 ns
fluorescence lifetime (in CN(C)C=O): 1.38 ns
fluorescence lifetime (in ClC(Cl)Cl): 1.36 ns
fluorescence lifetime (in c1ccccc1): 1.45 ns

N#Cc1c(-n2c3ccccc3c3ccccc32)c(-n2c3ccccc3c3ccccc32)c(-n2c3ccccc3c3ccccc32)c(-n2c3ccc(-c4ccccc4)cc3c3cc(-c4ccccc4)ccc32)c1-n1c2ccccc2c2ccccc21
fluorescence lifetime (in Cc1ccccc1): 7 ns

CC(C)(C)c1ccc(-c2nc3c4ccc(-c5ccccc5)cc4c4cc(-c5ccccc5)ccc4c3n2-c2ccc(C(C)(C)C)cc2)cc1
fluorescence lifetime (in ClCCl): 10.1 ns

CC1(C)c2cccc(-c3nc(-c4ccccc4)nc(-c4ccccc4)n3)c2Oc2c(N3c4ccccc4Sc4ccccc43)cccc21
fluorescence lifetime (in Cc1ccccc1): 2.8 ns

COc1nc(Nc2ccc3cc4ccccc4cc3c2)nc(OC)n1
fluorescence lifetime (in C1COCCO1): 12.2 ns
fluorescence lifetime (in CCOC(C)=O): 8.2 ns

CN(C)c1ccc(C2=Nc3sc4c(F)c(F)c(F)c(F)c4[n+]3[B-](F)(F)O2)cc1
fluorescence lifetime (in Cc1ccccc1): 2 ns

Oc1ccccc1/C=N/c1ccccc1/N=C/c1ccccc1O
fluorescence lifetime (in CC#N): 0.0089 ns

COC(=O)C(Cc1ccc2oc(-c3ccc(Nc4ccccc4)cc3)nc2c1)NC(=O)OC(C)(C)C (configuration not stated)
fluorescence lifetime (in C1CCCCC1): 1.23 ns
fluorescence lifetime (in C1CCOC1): 2.68 ns
fluorescence lifetime (in C1COCCO1): 1.83 ns
fluorescence lifetime (in CC1CCCO1): 2.75 ns
fluorescence lifetime (in CC1COC(=O)O1): 1.98 ns
fluorescence lifetime (in CC#N): 2.26 ns
fluorescence lifetime (in CC(C)=O): 2.96 ns
fluorescence lifetime (in CC(C)CC(C)(C)C): 1.01 ns
fluorescence lifetime (in CC(C)CO): 2.23 ns
fluorescence lifetime (in CC(C)O): 2.43 ns
fluorescence lifetime (in CC(C)OC(C)C): 2.48 ns
fluorescence lifetime (in CC(O)CO): 0.54 ns
fluorescence lifetime (in CCC(C)CC): 1.03 ns
fluorescence lifetime (in CCCCC): 1.14 ns
fluorescence lifetime (in CCCCCC): 1.02 ns
fluorescence lifetime (in CCCCCCCCC): 1.06 ns
fluorescence lifetime (in CCCCCCCCCC): 1.09 ns
fluorescence lifetime (in CCCCCCCO): 2.23 ns
fluorescence lifetime (in CCCCCCO): 2.41 ns
fluorescence lifetime (in CCCCCO): 2.89 ns
fluorescence lifetime (in CCCCO): 2 ns
fluorescence lifetime (in CCO): 0.8 ns
fluorescence lifetime (in CCOC(C)=O): 2.46 ns
fluorescence lifetime (in CCOCC): 2.27 ns
fluorescence lifetime (in CN(C)C=O): 2.45 ns
fluorescence lifetime (in CO): 0.43 ns
fluorescence lifetime (in COCCOC): 0.9 ns
fluorescence lifetime (in CS(C)=O): 1.92 ns
fluorescence lifetime (in Cc1ccccc1): 1.36 ns
fluorescence lifetime (in Cc1ccccc1C): 1.35 ns
fluorescence lifetime (in ClC(Cl)Cl): 2.26 ns
fluorescence lifetime (in ClCCl): 3.1 ns
fluorescence lifetime (in NC=O): 1.7 ns
fluorescence lifetime (in OC1CCCCC1): 2.23 ns
fluorescence lifetime (in OCCO): 2.95 ns
fluorescence lifetime (in c1ccccc1): 1.42 ns

CCOC(=O)C1(O)c2cc3ccc4cccc5ccc(c2C(=O)N1C(C)(C)C)c3c45 (configuration not stated)
fluorescence lifetime (in ClC(Cl)Cl): 5.11 ns

CN(C)c1ccc(-c2ccc(C#N)s2)s1
fluorescence lifetime (in CCO): 2.72 ns

NS(=O)(=O)c1ccc(N2N=C(c3ccc(O)cc3)CC2c2ccc(Br)cc2)cc1 (configuration not stated)
fluorescence lifetime (in C1CCOC1): 2.25 ns
fluorescence lifetime (in C1COCCO1): 2.17 ns
fluorescence lifetime (in CC#N): 2.2 ns
fluorescence lifetime (in CC(C)O): 1.98 ns
fluorescence lifetime (in CCO): 1.84 ns
fluorescence lifetime (in CCOC(C)=O): 2.18 ns
fluorescence lifetime (in CN(C)C=O): 2.12 ns
fluorescence lifetime (in CO): 1.67 ns
fluorescence lifetime (in CS(C)=O): 2 ns
fluorescence lifetime (in O): 3.07 ns

COC(=O)C(Cc1ccc2oc(-c3ccc(N(C)c4ccccc4)cc3)nc2c1)NC(=O)OC(C)(C)C (configuration not stated)
fluorescence lifetime (in C1CCCCC1): 1.81 ns
fluorescence lifetime (in C1CCOC1): 5.29 ns
fluorescence lifetime (in C1COCCO1): 4.14 ns
fluorescence lifetime (in CC1CCCO1): 4.37 ns
fluorescence lifetime (in CC1COC(=O)O1): 4.3 ns
fluorescence lifetime (in CC#N): 4.23 ns
fluorescence lifetime (in CC(C)=O): 5.11 ns
fluorescence lifetime (in CC(C)CC(C)(C)C): 1.7 ns
fluorescence lifetime (in CC(C)CO): 4.24 ns
fluorescence lifetime (in CC(C)O): 4.41 ns
fluorescence lifetime (in CC(O)CO): 0.88 ns
fluorescence lifetime (in CCC(C)CC): 1.67 ns
fluorescence lifetime (in CCCCC): 1.88 ns
fluorescence lifetime (in CCCCCC): 1.66 ns
fluorescence lifetime (in CCCCCCCCC): 1.78 ns
fluorescence lifetime (in CCCCCCCCCC): 1.79 ns
fluorescence lifetime (in CCCCCCCO): 4.34 ns
fluorescence lifetime (in CCCCCCO): 4.64 ns
fluorescence lifetime (in CCCCCO): 5.44 ns
fluorescence lifetime (in CCCCO): 3.97 ns
fluorescence lifetime (in CCO): 1.59 ns
fluorescence lifetime (in CCOC(C)=O): 4.68 ns
fluorescence lifetime (in CCOCC): 4.4 ns
fluorescence lifetime (in CN(C)C=O): 5.1 ns
fluorescence lifetime (in CO): 0.76 ns
fluorescence lifetime (in COCCOC): 1.18 ns
fluorescence lifetime (in CS(C)=O): 4.74 ns
fluorescence lifetime (in Cc1ccccc1): 2.81 ns
fluorescence lifetime (in Cc1ccccc1C): 2.7 ns
fluorescence lifetime (in ClC(Cl)Cl): 4.71 ns
fluorescence lifetime (in ClCCl): 6.11 ns
fluorescence lifetime (in NC=O): 2.35 ns
fluorescence lifetime (in OC1CCCCC1): 4.88 ns
fluorescence lifetime (in OCCO): 0.41 ns
fluorescence lifetime (in c1ccccc1): 2.97 ns

COc1ccc(C2=Cc3cc4ccccc4cc3P2(=O)c2ccccc2)cc1 (configuration not stated)
fluorescence lifetime (in ClCCl): 3.8 ns

CC1=C(c2ccc(N(c3ccccc3)c3ccccc3)cc2)C(C)=[N+]2C1=C(c1c(-c3ccccn3)nc3ccccn13)c1c(C)c(-c3ccc(N(c4ccccc4)c4ccccc4)cc3)c(C)n1[B-]2(F)F
fluorescence lifetime (in ClCCl): 0.3 ns

COc1ccc2c(c1)-c1ccccc1C2=O
fluorescence lifetime (in C1CCCCC1): 5.3 ns
fluorescence lifetime (in CC#N): 14 ns
fluorescence lifetime (in CCO): 1.1 ns

CC[Si](CC)(CC)Oc1cccc(O[Si](CC)(CC)CC)c1-c1c2ccccc2c(-c2c(O[Si](CC)(CC)CC)cccc2O[Si](CC)(CC)CC)c2ccccc12
fluorescence lifetime (in C1CCCCC1): 7.8 ns

CCC1(CC)c2cc(-c3ccc(C(C)(C)C)cc3)ccc2-c2ccc(-c3ccc4c(c3)C(CC)(CC)c3cc(-c5ccc6c(c5)C(CC)(CC)c5cc(-c7ccc(C(C)(C)C)cc7)ccc5-6)ccc3-4)cc21
fluorescence lifetime (in CCCCC): 0.65 ns
fluorescence lifetime (in CCCCCC): 0.62 ns
fluorescence lifetime (in CCCCCCC): 0.61 ns
fluorescence lifetime (in CCCCCCCC): 0.64 ns
fluorescence lifetime (in CCCCCCCCC): 0.62 ns
fluorescence lifetime (in CCCCCCCCCC): 0.64 ns
fluorescence lifetime (in CCCCCCCCCCCC): 0.64 ns
fluorescence lifetime (in CCCCCCCCCCCCC): 0.65 ns
fluorescence lifetime (in CCCCCCCCCCCCCCC): 0.64 ns
fluorescence lifetime (in CCCCCCCCCCCCCCCC): 0.63 ns
fluorescence lifetime (in CCCCCCCCCCO): 0.64 ns
fluorescence lifetime (in CCCCCCCCCO): 0.64 ns
fluorescence lifetime (in CCCCCCCCO): 0.63 ns
fluorescence lifetime (in CCCCCCCO): 0.64 ns
fluorescence lifetime (in CCCCCCO): 0.64 ns
fluorescence lifetime (in CCCCCO): 0.65 ns
fluorescence lifetime (in CCCCO): 0.64 ns
fluorescence lifetime (in CCCO): 0.65 ns
fluorescence lifetime (in CCO): 0.67 ns
fluorescence lifetime (in CO): 0.67 ns

NNC(=O)NNN1C(=O)c2cc(S(=O)(=O)[O-])cc3c(N)c(S(=O)(=O)[O-])cc(c23)C1=O
fluorescence lifetime (in C1COCCO1): 3.4 ns
fluorescence lifetime (in CC#N): 10.7 ns
fluorescence lifetime (in CC(C)=O): 4.6 ns
fluorescence lifetime (in CC(C)O): 9.6 ns
fluorescence lifetime (in CCCCCCCCO): 8.8 ns
fluorescence lifetime (in CCO): 9.2 ns
fluorescence lifetime (in CCOC(C)=O): 2.5 ns
fluorescence lifetime (in CO): 9.5 ns
fluorescence lifetime (in CS(C)=O): 10.7 ns
fluorescence lifetime (in O): 5.1 ns
fluorescence lifetime (in OCCO): 7.9 ns
fluorescence lifetime (in c1ccncc1): 6.3 ns

O=[N+]([O-])c1ccc(F)cc1C1CC(c2cccc3ccccc23)=NN1c1ccccc1 (configuration not stated)
fluorescence lifetime (in C1CCCCC1): 3.08 ns
fluorescence lifetime (in C1CCOC1): 3.76 ns
fluorescence lifetime (in C1COCCO1): 3.77 ns
fluorescence lifetime (in CC#N): 3.81 ns
fluorescence lifetime (in CC(C)O): 2.85 ns
fluorescence lifetime (in CCOC(C)=O): 3.67 ns
fluorescence lifetime (in CCOCC): 3.53 ns
fluorescence lifetime (in CO): 2.86 ns
fluorescence lifetime (in Cc1ccccc1): 3.29 ns
fluorescence lifetime (in ClC(Cl)Cl): 3.68 ns
fluorescence lifetime (in O): 1.4 ns

c1ccc(-c2nc3c(c4c2-c2ccccc2CC4)-c2ccccc2CC3)cc1
fluorescence lifetime (in CC#N): 1.39 ns
fluorescence lifetime (in CCCCCC): 0.26 ns
fluorescence lifetime (in CO): 0.29 ns
fluorescence lifetime (in CS(C)=O): 0.51 ns

Cc1ccc(C2=Cc3ccc4ccccc4[n+]3[B-](F)(F)O2)cc1
fluorescence lifetime (in ClC(Cl)Cl): 1.79 ns

COc1ccc(-c2cc(-c3ccc(C)cc3)nc3c(C#N)c(N4CCCC4)nc(N)c23)cc1
fluorescence lifetime (in CC#N): 11.7 ns
fluorescence lifetime (in CC(C)=O): 11.3 ns
fluorescence lifetime (in CC(C)O): 11.7 ns
fluorescence lifetime (in CO): 10.3 ns
fluorescence lifetime (in ClC(Cl)Cl): 13.1 ns
fluorescence lifetime (in ClCCl): 13.3 ns
fluorescence lifetime (in c1ccccc1): 12 ns

CC(C)(C)c1ccc(-c2c3cccc4c(-c5ccccc5)cc5c(-c6ccc(C(C)(C)C)cc6)c6cccc7c(-c8ccccc8)cc2c(c76)c5c43)cc1
fluorescence lifetime (in ClCCl): 2.98 ns

COc1cc2[nH]c3c(c2cc1OCC(=O)O)CCCC3=O
fluorescence lifetime (in C1CCOC1): 0.411 ns
fluorescence lifetime (in C1COCCO1): 0.189 ns
fluorescence lifetime (in CC#N): 0.627 ns
fluorescence lifetime (in CCCCCCCCCCCCO): 1.24 ns
fluorescence lifetime (in CCCCCCCCCCO): 1.17 ns
fluorescence lifetime (in CCCCCCCCO): 1.15 ns
fluorescence lifetime (in CCCCCCO): 1.17 ns
fluorescence lifetime (in CCCCO): 1.29 ns
fluorescence lifetime (in CCO): 1.69 ns
fluorescence lifetime (in CCOC(C)=O): 0.279 ns
fluorescence lifetime (in CN(C)C=O): 1.92 ns
fluorescence lifetime (in CO): 1.87 ns
fluorescence lifetime (in CS(C)=O): 2.27 ns
fluorescence lifetime (in Cc1ccccc1): 0.189 ns
fluorescence lifetime (in O): 2.23 ns
fluorescence lifetime (in c1ccccc1): 0.188 ns

COc1cc2cc(OC)c(-c3ccc([N+](=O)[O-])cc3)cc2cc1-c1ccc([N+](=O)[O-])cc1
fluorescence lifetime (in ClC(Cl)Cl): 0.62 ns
fluorescence lifetime (in ClCCl): 0.53 ns

COc1ccc(/C=C/c2nc(N3CCOCC3)c3c([n+]2[O-])CCCC3)cc1
fluorescence lifetime (in ClCCl): 8.3 ns

CCC12C(=C3C(=C4c5ccccc5S(=O)(=O)C41CC)C(F)(F)C(F)(F)C3(F)F)c1ccccc1S2(=O)=O (configuration not stated)
fluorescence lifetime (in C1COCCO1): 1.2 ns

Cc1nnc(-c2ccc(-n3c4ccccc4c4ccccc43)cc2)o1
fluorescence lifetime (in CCO): 2.07 ns

Fc1c(-c2nnc(-c3ccccc3)o2)c(-n2c3ccccc3c3ccccc32)c(F)c(-n2c3ccccc3c3ccccc32)c1-n1c2ccccc2c2ccccc21
fluorescence lifetime (in Cc1ccccc1): 7.7 ns

C=Cc1cc(OC)cc(OC)c1
fluorescence lifetime (in C1CCCCC1): 3.8 ns
fluorescence lifetime (in CC#N): 6.9 ns

O=c1c2ccccc2n2c3ccccc3c(=O)c3cc(-c4ccccc4)cc1c32
fluorescence lifetime (in c1cc(-c2cccc(-n3c4ccccc4c4ccccc43)c2)cc(-n2c3ccccc3c3ccccc32)c1): 5.47 ns
fluorescence lifetime (in c1cc(-n2c3ccccc3c3ccccc32)cc(-n2c3ccccc3c3ccccc32)c1): 5.47 ns

NNC(=O)N1C(=O)c2cc(S(=O)(=O)[O-])cc3c(N)c(S(=O)(=O)[O-])cc(c23)C1=O
fluorescence lifetime (in O): 5.7 ns

CN(C)c1ccc(C(=Cc2ccc(/C=C(\C#N)c3ccccc3)cc2)c2ccc(N(C)C)cc2)cc1
fluorescence lifetime (in C1CCOC1): 0.3 ns
